Measurements published in ChEMBL document CHEMBL1201862, “PubChem BioAssay data set” (2004).
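Results reflect a 48-hour exposure of cells in 96-well plates to compound at five concentrations. Abbreviation: GI50, concentration required for 50% inhibition of growth.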 Calls of active or inactive are those of the source. No stated cut-off is given here; in the data, active = GI50 up to about 1.1 µM and inactive = higher.

Assays:
Experiment in all cases: NCI tumour cell line growth inhibition, 48 h
[1] = system: ACHN
[2] = system: NCI-H460
[3] = system: U-251
[4] = system: SR
[5] = system: EKVX
[6] = system: 786-0
[7] = system: HCT-15
[8] = system: OVCAR-5
[9] = system: HCT-116
[10] = system: SF-268
[11] = system: UO-31
[12] = system: CCRF-CEM
[13] = system: SK-MEL-2
[14] = system: OVCAR-3
[15] = system: KM12
[16] = system: IGROV-1
[17] = system: NCI-H226
[18] = system: OVCAR-8
[19] = system: SNB-75

| Compound | GI50 [1] | GI50 [2] | GI50 [3] | GI50 [4] | GI50 [5] | GI50 [6] | GI50 [7] [µM] | GI50 [8] | GI50 [9] | GI50 [10] | GI50 [11] | GI50 [12] | GI50 [13] | GI50 [14] | GI50 [15] | GI50 [16] | GI50 [17] | GI50 [18] | GI50 [19] |
| --- | --- | --- | --- | --- | --- | --- | --- | --- | --- | --- | --- | --- | --- | --- | --- | --- | --- | --- | --- |
| Cc1cc(-c2ccccc2)nc(Nc2nc3ccccc3o2)n1 | > 100 µM (inactive) | > 100 µM (inactive) | > 100 µM (inactive) | > 100 µM (inactive) | > 100 µM (inactive) | > 100 µM (inactive) | > 100 | > 100 µM (inactive) | > 100 µM (inactive) | > 100 µM (inactive) | > 100 µM (inactive) | 74 µM (inactive) | > 100 µM (inactive) | > 100 µM (inactive) | > 100 µM (inactive) | > 100 µM (inactive) | > 100 µM (inactive) | > 100 µM (inactive) |  |
| CS(=O)(=O)c1nc(N)nc2nc[nH]c12 | > 100 µM (inactive) | > 100 µM (inactive) | > 100 µM (inactive) | > 100 µM (inactive) | > 100 µM (inactive) | > 100 µM (inactive) | > 100 | > 100 µM (inactive) | > 100 µM (inactive) | > 100 µM (inactive) | > 100 µM (inactive) | > 100 µM (inactive) | > 100 µM (inactive) | > 100 µM (inactive) | > 100 µM (inactive) | > 100 µM (inactive) | > 100 µM (inactive) | > 100 µM (inactive) |  |
| CC(=O)CC(=O)Nc1ccccc1[N+](=O)[O-] | > 100 µM (inactive) | > 100 µM (inactive) | > 100 µM (inactive) | > 100 µM (inactive) | > 100 µM (inactive) | > 100 µM (inactive) | > 100 | > 100 µM (inactive) | > 100 µM (inactive) | > 100 µM (inactive) | > 100 µM (inactive) | > 100 µM (inactive) | > 100 µM (inactive) | > 100 µM (inactive) | > 100 µM (inactive) | > 100 µM (inactive) | > 100 µM (inactive) | > 100 µM (inactive) | > 100 µM (inactive) |
| Cn1c(=O)c2ccc(-c3ccc(Br)cc3)nc2n(C)c1=O |  | > 100 µM (inactive) | > 100 µM (inactive) | > 100 µM (inactive) | 42.9 µM (inactive) | > 100 µM (inactive) | > 100 | > 100 µM (inactive) | 68.9 µM (inactive) | > 100 µM (inactive) | > 100 µM (inactive) | > 100 µM (inactive) | > 100 µM (inactive) | > 100 µM (inactive) | > 100 µM (inactive) | > 100 µM (inactive) | > 100 µM (inactive) | > 100 µM (inactive) | 29.6 µM (inactive) |
| Cc1nc2c(o1)/C(=N\c1ccccc1)c1nc(C)oc1/C2=N/c1ccccc1 | 17.9 µM (inactive) | 29.3 µM (inactive) | 17.7 µM (inactive) | 60.5 µM (inactive) | > 10 µM (inactive) | 17.7 µM (inactive) | 23.4 | 34 µM (inactive) | 19.4 µM (inactive) | 23.7 µM (inactive) | 17.2 µM (inactive) | 61.1 µM (inactive) | 26.8 µM (inactive) | 39.2 µM (inactive) |  | 4.73 µM (inactive) | 21.4 µM (inactive) | 15.3 µM (inactive) | 11.7 µM (inactive) |
| N=C(N)c1ccc(/N=N/c2c(O)ccc3cc(O)ccc23)cc1 | > 100 µM (inactive) | > 100 µM (inactive) | > 100 µM (inactive) | 24.7 µM (inactive) | > 100 µM (inactive) | > 100 µM (inactive) | > 100 | > 100 µM (inactive) | > 100 µM (inactive) | > 100 µM (inactive) | > 100 µM (inactive) | > 100 µM (inactive) | > 100 µM (inactive) | > 100 µM (inactive) | > 100 µM (inactive) | > 100 µM (inactive) | > 100 µM (inactive) | > 100 µM (inactive) |  |
| CCCCCCCCCCCCCCCCOP(=O)(O)Oc1ccc(/C=C\c2ccc(OP(=O)(O)OCCCCCCCCCCCCCCCC)cc2)cc1 | 40.6 µM (inactive) | 56.4 µM (inactive) | 34 µM (inactive) | 30 µM (inactive) | > 100 µM (inactive) | 26.2 µM (inactive) | > 100 | > 100 µM (inactive) | 54 µM (inactive) | 34.9 µM (inactive) | > 100 µM (inactive) | 29 µM (inactive) | > 100 µM (inactive) | 43.2 µM (inactive) | 56.2 µM (inactive) | 30.8 µM (inactive) | 42.7 µM (inactive) | 12.2 µM (inactive) | 12 µM (inactive) |
| [N-]=[N+]=NC(CCl)c1cn([C@H]2C[C@H](O)[C@@H](CO)O2)c(=O)[nH]c1=O (stereo partly specified) | > 100 µM (inactive) | > 100 µM (inactive) | > 100 µM (inactive) | > 100 µM (inactive) | > 100 µM (inactive) | > 100 µM (inactive) | > 100 | > 100 µM (inactive) | > 100 µM (inactive) |  | > 100 µM (inactive) | > 100 µM (inactive) | > 100 µM (inactive) | > 100 µM (inactive) | > 100 µM (inactive) | > 100 µM (inactive) | > 100 µM (inactive) | > 100 µM (inactive) | > 100 µM (inactive) |
